Data published in BindingDB's records for doi:10.1021/acs.biochem.5b00106 (Louis Stokes Cleveland Veterans Affairs Medical Center, 2015).

Legend:
[1] = target: Metallo-beta-lactamase VIM-2 (Klebsiella pneumoniae, UniProt Q3Y6Q3); test: Direct Competition Assay
Protocol: (§1) The Ki for each inhibitor was determined by direct competition assays under steady-state conditions. The initial velocity was measured in the presence of a constant concentration of enzyme (3 nM for VIM-2 and 4 nM for VIM-24) with increasing concentrations of inhibitor (5−60 μM) against a fixed concentration (5KM) of the indicator substrate, NCF, as previously described. The reactionswere started by addition of VIM-2 or VIM-24 to substrate or to mixtures of substrate and inhibitor.

VIM-24 = VIM-24 (Klebsiella pneumoniae, UniProt E0AFT6); test: Direct Competition Assay
Protocol: as §1

| SMILES | Ki [1] [µM] | Ki (VIM-24) [µM] |
| --- | --- | --- |
| O=C(O)[C@@H]1CS[C@H]2CS[C@H](CS)N21 [L-CS319] | 3.7 | 6 |
| CC1(C)S[C@@H]2CS[C@@H](CS)N2[C@H]1C(=O)O [D-VC26] | 14 | 12 |
| O=C(O)[C@H]1CS[C@@H]2CS[C@@H](CS)N12 [D-CS319] | 5.4 | 11 |
| CC1(C)S[C@H]2CS[C@H](CS)N2[C@@H]1C(=O)O [L-VC26] | 3.8 | 4.9 |
